Assays:
BIR2 domain of XIAP = BIR2 domain of XIAP (Homo sapiens (Human), UniProt P98170, C202A/C213G); assay: TR-FRET assay for BIR2 (inhibition of binding of XIAP BIR2 domain to Peptide A); conditions: 6x His-tagged BIR2 domain (aa 124-240 of XIAP), 20 nM Peptide A
Experimental: (§1) TR-FRET Assay for BIR2 and BIR3
(§2) The peptides were labeled with the fluorescent tags FITC or TAMRA and Kd values were determined by fluorescence polarization assay. […] The peptide sequence was derivatized with biotin to provide […]-(ε-biotin)-OH 1:2 TFA as the substrate for the TR-FRET assay.
The XIAP protein sequence was obtained from the SWISS-PROT protein sequence database and the BIR2 and BIR3 domains were derived from that. The sequence of the BIR2 domain used for the TR-FRET assay is
(§3) Time-resolved fluorescence resonance energy transfer (TR-FRET) signals were measured 1 hour later at room temperature. Test compound potency was assessed at 10 serially diluted concentrations. Percentage of inhibition at each concentration was determined to generate an IC50 value for each test compound.

BIR3 domain of XIAP = BIR3 domain of XIAP (Homo sapiens (Human), UniProt P98170); assay: TR-FRET assay for BIR3 (inhibition of binding of XIAP BIR3 domain to Peptide A); conditions: 6x His-tagged BIR3 domain (aa 241-356 of XIAP), 20 nM Peptide A
Chain of BIR3 domain of XIAP (P98170 other isoform, or with tags, fused parts or gaps): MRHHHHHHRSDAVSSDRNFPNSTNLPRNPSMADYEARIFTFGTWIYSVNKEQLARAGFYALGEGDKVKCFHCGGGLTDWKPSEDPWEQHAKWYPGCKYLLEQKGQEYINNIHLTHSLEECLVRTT
Experimental: as §1, §2
The sequence of the BIR3 domain used for the TR-FRET assay is
as §3

Chain of BIR2 domain of XIAP (P98170 other isoform, or with tags, fused parts or gaps, stated change not applied): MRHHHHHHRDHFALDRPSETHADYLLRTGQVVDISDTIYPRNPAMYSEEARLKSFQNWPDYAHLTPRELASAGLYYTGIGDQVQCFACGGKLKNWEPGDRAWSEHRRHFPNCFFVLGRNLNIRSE

Row | IC50 (BIR2 domain of XIAP) | IC50 (BIR3 domain of XIAP) | Structure (SMILES)
1 | 2350 nM | > 54.8 µM | CN[C@@H](C)C(=O)N[C@H](C(=O)N1CCc2ccc(F)cc2[C@@H]1C(=O)Nc1c(F)cccc1F)C(C)C [Example 41, N-(2,6-difluorophenyl)-7-fluoro-2-((S)-3-methyl-2-((S)-2-(methylamino)propanamido)butanoyl)-1,2,3,4-tetrahydroisoquinoline-1-carboxamide]
2 | 27 nM | > 54.8 µM | CN[C@@H](C)C(=O)N[C@H](C(=O)N1CCc2ccc(F)cc2[C@H]1C(=O)Nc1c(F)cccc1F)C(C)C [Example 42, N-(2,6-difluorophenyl)-7-fluoro-2-((S)-3-methyl-2-((S)-2-(methylamino)propanamido)butanoyl)-1,2,3,4-tetrahydroisoquinoline-1-carboxamide]
3 | 4710 nM | > 54.8 µM | CN[C@@H](C)C(=O)N[C@H](C(=O)N1CCc2ccc(Cl)cc2[C@@H]1C(=O)Nc1c(F)cccc1F)C(C)C [Example 44, 7-chloro-N-(2,6-difluorophenyl)-2-((S)-3-methyl-2-((S)-2-(methylamino)propanamido)butanoyl)-1,2,3,4-tetrahydroisoquinoline-1-carboxamide]
4 | 47 nM | > 54.8 µM | CN[C@@H](C)C(=O)N[C@H](C(=O)N1CCc2ccc(Cl)cc2[C@H]1C(=O)Nc1c(F)cccc1F)C(C)C [Example 45, 7-chloro-N-(2,6-difluorophenyl)-2-((S)-3-methyl-2-((S)-2-(methylamino)propanamido)butanoyl)-1,2,3,4-tetrahydroisoquinoline-1-carboxamide]

From US9422332B2, “Azaheterocycles as BIR2 and/or BIR3 inhibitors” (Hoffmann-La Roche Inc., priority 2012, dated 2016)
